Conditions: Liquid, Vibrating tube method

CCCCn1cc[n+](C)c1.N#CN=C=[N-] [1-butyl-3-methylimidazolium dicyanamide]
Conditions	mass density [kg/m3]
293.15 K, 100 kPa	1064.4
293.15 K, 101.33 kPa	1063.73
293.15 K, 250 kPa	1064.4
293.15 K, 500 kPa	1064.5
293.15 K, 1000 kPa	1064.7
293.15 K, 2000 kPa	1065.1
293.15 K, 4990 kPa	1066.2
293.15 K, 10010 kPa	1068.2
293.15 K, 15000 kPa	1070
293.15 K, 20000 kPa	1071.9
293.15 K, 25000 kPa	1073.6
293.15 K, 30000 kPa	1075.4
293.15 K, 35000 kPa	1077.1
293.15 K, 40000 kPa	1078.9
293.15 K, 45000 kPa	1080.5
293.15 K, 50000 kPa	1082.2
293.15 K, 55000 kPa	1083.8
293.15 K, 60000 kPa	1085.4
294.15 K, 101.33 kPa	1063.09
295.15 K, 101.33 kPa	1062.45
296.15 K, 101.33 kPa	1061.81
297.15 K, 101.33 kPa	1061.17
298.15 K, 101.33 kPa	1060.53
299.15 K, 101.33 kPa	1059.89
300.15 K, 101.33 kPa	1059.26
301.15 K, 101.33 kPa	1058.62
302.15 K, 101.33 kPa	1057.99
303.15 K, 100 kPa	1057.9
303.15 K, 101.33 kPa	1057.35
303.15 K, 250 kPa	1057.9
303.15 K, 500 kPa	1058
303.15 K, 1000 kPa	1058.2
303.15 K, 2000 kPa	1058.6
303.15 K, 4990 kPa	1059.8
303.15 K, 10000 kPa	1061.8
303.15 K, 14990 kPa	1063.6
303.15 K, 20010 kPa	1065.5
303.15 K, 25000 kPa	1067.4
303.15 K, 30000 kPa	1069.2
303.15 K, 34990 kPa	1070.9
303.15 K, 40000 kPa	1072.7
303.15 K, 45000 kPa	1074.4
303.15 K, 50000 kPa	1076.1
303.15 K, 55000 kPa	1077.8
303.15 K, 60000 kPa	1079.4
304.15 K, 101.33 kPa	1056.72
305.15 K, 101.33 kPa	1056.09
306.15 K, 101.33 kPa	1055.45
307.15 K, 101.33 kPa	1054.82
308.15 K, 101.33 kPa	1054.19
309.15 K, 101.33 kPa	1053.56
310.15 K, 101.33 kPa	1052.93
311.15 K, 101.33 kPa	1052.31
312.15 K, 101.33 kPa	1051.68
313.15 K, 100 kPa	1051.5
313.15 K, 101.33 kPa	1051.05
313.15 K, 250 kPa	1051.5
313.15 K, 500 kPa	1051.6
313.15 K, 1000 kPa	1051.8
313.15 K, 2000 kPa	1052.3
313.15 K, 4990 kPa	1053.4
313.15 K, 10000 kPa	1055.5
313.15 K, 14990 kPa	1057.4
313.15 K, 20010 kPa	1059.4
313.15 K, 25000 kPa	1061.2
313.15 K, 30000 kPa	1063.1
313.15 K, 35000 kPa	1064.9
313.15 K, 40010 kPa	1066.7
313.15 K, 45000 kPa	1068.4
313.15 K, 50000 kPa	1070.2
313.15 K, 55010 kPa	1071.9
313.15 K, 60000 kPa	1073.6
314.15 K, 101.33 kPa	1050.43
315.15 K, 101.33 kPa	1049.8
316.15 K, 101.33 kPa	1049.18
317.15 K, 101.33 kPa	1048.56
318.15 K, 101.33 kPa	1047.94
319.15 K, 101.33 kPa	1047.32
320.15 K, 101.33 kPa	1046.7
321.15 K, 101.33 kPa	1046.08
322.15 K, 101.33 kPa	1045.46
323.15 K, 100 kPa	1045.2
323.15 K, 101.33 kPa	1044.84
323.15 K, 250 kPa	1045.3
323.15 K, 500 kPa	1045.4
323.15 K, 1000 kPa	1045.6
323.15 K, 2010 kPa	1046
323.15 K, 4990 kPa	1047.3
323.15 K, 10010 kPa	1049.3
323.15 K, 14990 kPa	1051.3
323.15 K, 20010 kPa	1053.3
323.15 K, 25000 kPa	1055.2
323.15 K, 30010 kPa	1057.1
323.15 K, 34990 kPa	1058.9
323.15 K, 40000 kPa	1060.8
323.15 K, 45000 kPa	1062.6
323.15 K, 50000 kPa	1064.4
323.15 K, 55000 kPa	1066.1
323.15 K, 60000 kPa	1067.8
324.15 K, 101.33 kPa	1044.22
325.15 K, 101.33 kPa	1043.61
326.15 K, 101.33 kPa	1042.99
327.15 K, 101.33 kPa	1042.37
328.15 K, 101.33 kPa	1041.76
329.15 K, 101.33 kPa	1041.14
330.15 K, 101.33 kPa	1040.53
331.15 K, 101.33 kPa	1039.92
332.15 K, 101.33 kPa	1039.3
333.15 K, 100 kPa	1039
333.15 K, 101.33 kPa	1038.69
333.15 K, 250 kPa	1039.1
333.15 K, 500 kPa	1039.2
333.15 K, 1000 kPa	1039.4
333.15 K, 2000 kPa	1039.9
333.15 K, 4990 kPa	1041.1
333.15 K, 10000 kPa	1043.2
333.15 K, 15000 kPa	1045.2
333.15 K, 20000 kPa	1047.3
333.15 K, 25000 kPa	1049.2
333.15 K, 30000 kPa	1051.3
333.15 K, 34990 kPa	1053.1
333.15 K, 40000 kPa	1055
333.15 K, 45010 kPa	1056.8
333.15 K, 50000 kPa	1058.6
333.15 K, 55000 kPa	1060.4
333.15 K, 60000 kPa	1062.2
334.15 K, 101.33 kPa	1038.08
335.15 K, 101.33 kPa	1037.47
336.15 K, 101.33 kPa	1036.86
337.15 K, 101.33 kPa	1036.25
338.15 K, 101.33 kPa	1035.64
339.15 K, 101.33 kPa	1035.03
340.15 K, 101.33 kPa	1034.42
341.15 K, 101.33 kPa	1033.82
342.15 K, 101.33 kPa	1033.21
343.15 K, 100 kPa	1032.9
343.15 K, 101.33 kPa	1032.61
343.15 K, 250 kPa	1033
343.15 K, 500 kPa	1033.1
343.15 K, 1000 kPa	1033.3
343.15 K, 2000 kPa	1033.7
343.15 K, 4990 kPa	1035
343.15 K, 10010 kPa	1037.2
343.15 K, 15000 kPa	1039.2
343.15 K, 20010 kPa	1041.4
343.15 K, 25000 kPa	1043.3
343.15 K, 30000 kPa	1045.4
343.15 K, 35010 kPa	1047.3
343.15 K, 40000 kPa	1049.3
343.15 K, 45000 kPa	1051.1
343.15 K, 50000 kPa	1053
343.15 K, 55000 kPa	1054.7
343.15 K, 60000 kPa	1056.6
344.15 K, 101.33 kPa	1032
345.15 K, 101.33 kPa	1031.4
346.15 K, 101.33 kPa	1030.79
347.15 K, 101.33 kPa	1030.19
348.15 K, 101.33 kPa	1029.59
349.15 K, 101.33 kPa	1028.98
350.15 K, 101.33 kPa	1028.38
351.15 K, 101.33 kPa	1027.78
352.15 K, 101.33 kPa	1027.18
353.15 K, 100 kPa	1026.8
353.15 K, 101.33 kPa	1026.58
353.15 K, 250 kPa	1026.9
353.15 K, 500 kPa	1027
353.15 K, 1000 kPa	1027.2
353.15 K, 2000 kPa	1027.7
353.15 K, 5000 kPa	1029
353.15 K, 10000 kPa	1031.3
353.15 K, 15000 kPa	1033.4
353.15 K, 20000 kPa	1035.5
353.15 K, 25000 kPa	1037.5
353.15 K, 30010 kPa	1039.6
353.15 K, 35000 kPa	1041.6
353.15 K, 40000 kPa	1043.6
353.15 K, 45000 kPa	1045.4
353.15 K, 50000 kPa	1047.4
353.15 K, 55000 kPa	1049.2
353.15 K, 60000 kPa	1051
354.15 K, 101.33 kPa	1025.98
355.15 K, 101.33 kPa	1025.38
356.15 K, 101.33 kPa	1024.79
357.15 K, 101.33 kPa	1024.19
358.15 K, 101.33 kPa	1023.59
359.15 K, 101.33 kPa	1022.99
360.15 K, 101.33 kPa	1022.4
361.15 K, 101.33 kPa	1021.8
362.15 K, 101.33 kPa	1021.21
363.15 K, 100 kPa	1020.8
363.15 K, 101.33 kPa	1020.61
363.15 K, 250 kPa	1020.9
363.15 K, 500 kPa	1021
363.15 K, 1000 kPa	1021.3
363.15 K, 2000 kPa	1021.7
363.15 K, 4990 kPa	1023.1
363.15 K, 10000 kPa	1025.4
363.15 K, 14990 kPa	1027.6
363.15 K, 20010 kPa	1029.8
363.15 K, 25010 kPa	1031.8
363.15 K, 30000 kPa	1033.9
363.15 K, 35000 kPa	1035.9
363.15 K, 40000 kPa	1038
363.15 K, 45000 kPa	1039.9
363.15 K, 50000 kPa	1041.8
363.15 K, 55000 kPa	1043.7
363.15 K, 60000 kPa	1045.6
373.15 K, 100 kPa	1014.9
373.15 K, 250 kPa	1015
373.15 K, 500 kPa	1015.1
373.15 K, 1000 kPa	1015.4
373.15 K, 2000 kPa	1015.8
373.15 K, 4990 kPa	1017.2
373.15 K, 10000 kPa	1019.5
373.15 K, 15000 kPa	1021.8
373.15 K, 20000 kPa	1024
373.15 K, 25000 kPa	1026.2
373.15 K, 30000 kPa	1028.3
373.15 K, 35000 kPa	1030.3
373.15 K, 40000 kPa	1032.4
373.15 K, 45000 kPa	1034.4
373.15 K, 50000 kPa	1036.4
373.15 K, 55000 kPa	1038.3
373.15 K, 60000 kPa	1040.2
393.15 K, 100 kPa	1003.2
393.15 K, 250 kPa	1003.3
393.15 K, 500 kPa	1003.4
393.15 K, 1000 kPa	1003.7
393.15 K, 2000 kPa	1004.1
393.15 K, 4990 kPa	1005.6
393.15 K, 10010 kPa	1008.1
393.15 K, 15000 kPa	1010.4
393.15 K, 20010 kPa	1012.8
393.15 K, 25000 kPa	1015
393.15 K, 30000 kPa	1017.2
393.15 K, 35000 kPa	1019.4
393.15 K, 40000 kPa	1021.6
393.15 K, 45000 kPa	1023.6
393.15 K, 50000 kPa	1025.7
393.15 K, 55000 kPa	1027.7
393.15 K, 60000 kPa	1029.6

Reference: the NIST ThermoML archive (doi:10.1016/j.fluid.2010.03.010)
